Patent publication US10377818B2, “Method of treating glioma” (The Board of Trustees of the Leland Stanford Junior …, priority 2015, dated 2019)
Where two headings read alike, the source gives them in different places.

Experiments:
SU-pcGBM2 cells [1] = experiment: EdU incorporation assay, proliferation index of pHGG cells (SU-pcGBM2); type: cell-based, human; settings: for effect on the proliferative effect of active CM: 100 nM TRKB inhibitor ANA12 in combination with 500 nM NRXN; for effect on 50 nM NLGN3-induced increase in proliferation index: inhibitor 100 nM, EdU assay; for effect on proliferation index relative to aCSF control: recombinant candidate proteins at 100 nM for 24 hours; for potency of proliferation promotion compared with NLGN3: pHGG cells, dose curves 0-100 nM
secreted NLGN3 = experiment: Secreted NLGN3 in active CM of acute cortical slices incubated with protease inhibitors, Western blot; type: cell-based, mouse; settings: slices incubated with protease inhibitor during optogenetic stimulation, preliminary experiments
Protocol: (§1) Thy1::ChR2 or WT mice between the age of 4-7 weeks were briefly exposed to CO2, and immediately decapitated. Extracted brains were placed in oxygenated sucrose solution and sliced in 350-μm sections using a vibratome (Leica VT 1200S, Buffalo Grove, Ill.). Slices were then placed in buffering solution (aCSF; 119 mM NaCl, 11 mM D-glucose, 25 mM NaHCO3, 2.5 mM KCl, 1.2 mM NaH2PO4, 2.3 mM MgCl2, and 2.5 mM CaCl2) and allowed to recover for at least an hour. After recovery, slices were then moved into a 24 well plate and stimulated using a blue-light LED from a microscope objective. The stimulation paradigm mirrored in vivo experiments, using 20-Hz pulses of blue light for a 30 s on, 90 s off cycle over a period of 30 minutes. Surrounding medium was then collected for immediate use or frozen for future experiments.
A series of similar preliminary experiments were performed in which acute cortical slices were incubated with different protease inhibitors during optogenetic stimulation and then the active CM was analyzed by Western blot for secreted NLGN3.
Role for MMP9 in NLGN3 secretion: Acute cortical slices from Thy1::ChR2 mice were optogenetically-stimulated in the presence or absence of protease inhibitors as indicated. Conditioned media was analyzed by Western blot for secreted NLGN3 content.

[2] = tested on: NLGN3 mRNA in SU-pcGBM2 cells; experiment: qPCR of NLGN3 gene expression in SU-pcGBM2 cells; type: cell-based, human; settings: for effect on soluble NLGN3-induced increase in NLGN3 gene expression: 50 nM NLGN3 plus inhibitor, BKM120 500 nM (FIG. 5E) or 100 nM (FIG. 29), RAD001 100 nM
[3] = tested on: soluble NLGN3 in the CM (NLGN3 secretion); experiment: Soluble NLGN3 in CM of optogenetically stimulated acute cortical slices, 2D-PAGE and mass spectrometry; type: cell-based, mouse; settings: slices incubated with inhibitor during optogenetic stimulation; pilot experiment
Protocol: as §1

SU-pcGBM2 cells [4] = type: cell-based, human
pHGG cells = experiment: pHGG cell proliferation with active CM from slices stimulated in presence of protease inhibitor; type: cell-based, human; settings: inhibitor present during optogenetic stimulation of slices
Excerpt: MMP inhibition abrogates activity-regulated glioma proliferation. Acute cortical slices were optogenetically-stimulated in the presence or absence of a protease inhibitor as in Example 14, and pHGG cells were exposed to the CM. As expected, active CM in the absence of protease inhibitors contained secreted NLGN3 (FIG. 37) and promoted glioma cell proliferation (FIG. 38).
MMP inhibition in situ reduces activity-regulated glioma cell proliferation in vitro Active CM from Thy1::ChR2 cortical slices were incubated with either the multi-MMP inhibitor batimastat (A) or the ADAM17 inhibitor TAPI (B) during optogenetic stimulation and the active CM collected. Unconditioned media (aCSF) with or without inhibitor was used in control wells. Data shown as mean±SEM. One-way ANOVA, *P<0.05, ***P<0.001. n.s.=P>0.05.

O=C(Nc1ccccc1C(=O)NC1CCCCNC1=O)c1cc2ccccc2s1 (stereo not drawn) [ANA12, reference compound]
effect on the proliferative effect of active CM (SU-pcGBM2 cells [1]): completely abrogates the proliferative effect of active CM

CC(C)ON(CC(=O)NO)S(=O)(=O)c1ccc(-c2ccccc2)cc1 [ARP100]
secreted NLGN3 levels in active CM (secreted NLGN3): No detectable decrease in secreted NLGN3

Cl.Nc1cc(C(F)(F)F)c(-c2cc(N3CCOCC3)nc(N3CCOCC3)n2)cn1 [BKM120, 5-(2,6-dimorpholin-4-ylpyrimidin-4-yl)-4-(trifluoromethyl)pyridin-2-amine hydrochloride]
effect on 50 nM NLGN3-induced increase in proliferation index (SU-pcGBM2 cells [1]): blocked
effect on soluble NLGN3-induced increase in NLGN3 gene expression ([2]; 12 h): blocked the soluble NLGN3-induced increase in NLGN3 gene expression
effect on NLGN3 expression in the absence of soluble NLGN3 exposure ([2]; BKM120 alone, 12 h): no effect on NLGN3 expression

CNC(=O)[C@@H](NC(=O)[C@H](CCCc1ccccc1)[C@H](C)N(O)C=O)C(C)(C)C [GI254023X]
reduction in soluble NLGN3 in the CM [3]: ~50%

O=C(NO)[C@@H](Cc1ccccc1)NS(=O)(=O)c1ccc(-c2ccccc2)cc1 [MMP2/9 inhibitor SCBT inhibitor II, (2R)—N-hydroxy-3-phenyl-2-[(4-phenylphenyl)sulfonylamino]propanamide]
secreted NLGN3 levels in active CM (secreted NLGN3): significant decrease in NLGN3 levels

COc1ccc(S(=O)(=O)N2CCN(C(=O)OCc3ccccc3)CC2C(=O)NO)cc1 (stereo not drawn) [MMP9/13 Inhbitor II]
secreted NLGN3 levels in active CM (secreted NLGN3): significant decrease in NLGN3 levels

CO[C@H]1C[C@@H]2CC[C@@H](C)[C@@](O)(O2)C(=O)C(=O)N2CCCC[C@H]2C(=O)O[C@H]([C@H](C)C[C@@H]2CC[C@@H](OCCO)[C@H](OC)C2)CC(=O)[C@H](C)/C=C(\C)[C@@H](O)[C@@H](OC)C(=O)[C@H](C)C[C@H](C)/C=C/C=C/C=C/1C [RAD001, reference compound]
effect on 50 nM NLGN3-induced increase in proliferation index (SU-pcGBM2 cells [1]): blocks 50 nM NLGN3-induced proliferation
effect on soluble NLGN3-induced increase in NLGN3 gene expression ([2]; 12 h): prevented the feed-forward effect of NLGN3 on NLGN3 gene expression

NC1=N[C@H](O)[C@H]2[C@H]3O[C@]4(O)O[C@@H]([C@@H](O)[C@@]2(N1)[C@@H]4O)[C@]3(O)CO [TTX, tetrodotoxin]
proliferation index (SU-pcGBM2 cells [4]): ~0.25

ApoE: Recombinant candidate protein from proteomic analyses of cortical slice conditioned media
effect on proliferation index relative to aCSF control (SU-pcGBM2 cells [1]): did not differ

BDNF: Recombinant brain-derived neurotrophic factor (R&D Systems), candidate mitogen
potency of proliferation promotion compared with NLGN3 (SU-pcGBM2 cells [1]): less potently than NLGN3
effect on proliferation index relative to aCSF control (SU-pcGBM2 cells [1]): promote glioma cell proliferation

EGF: Epidermal growth factor (Shenandoah), ligand known to stimulate the PI3K pathway
effect on glioma cell NLGN3 expression ([2]; 50 nM EGF, 12 hour vs vehicle): no effect was found

GRP78: Recombinant 78-kDa glucose-regulated protein (Abcam), known glioma mitogen
potency of proliferation promotion compared with NLGN3 (SU-pcGBM2 cells [1]): less potently than NLGN3
effect on proliferation index relative to aCSF control (SU-pcGBM2 cells [1]): promote glioma cell proliferation

NRXN1β: Recombinant neurexin-1β (R&D Systems), binds NLGN3 with high affinity, used to deplete NLGN3
effect on the proliferative effect of active CM (SU-pcGBM2 cells [1]): completely abrogates the proliferative effect of active CM
effect on proliferation index (SU-pcGBM2 cells [1]; NRXN1β alone (500 nM) added to aCSF or to CM from WT cortical slices): no effect on proliferation index
proliferation index (SU-pcGBM2 cells [1]; pHGG cells exposed to 50 nM NLGN3+500 nM NRXN1β): 0.28±0.01
proliferation index (SU-pcGBM2 cells [1]; pHGG cells exposed to Thy1::ChR2 CM+NRXN1β (500 nM)): 0.34±0.01

TAPI
effect on the mitogenic effect of active CM (pHGG cells): did not alter the mitogenic effect of active CM
secreted NLGN3 levels in active CM (secreted NLGN3): no effect on NLGN3 levels was observed
secreted NLGN3 levels in active CM (secreted NLGN3; listed as ADAM17 inhibitor): did not decrease NLGN3 levels
